Source: ChEMBL document CHEMBL1139300, “Identification of a small molecule beta-secretase inhibitor that binds without catalytic aspartate engagement” (Bioorg Med Chem Lett, 2009)

Each molecule was assayed against Beta-secretase 1 (Homo sapiens, UniProt P56817) (assay: Inhibition of BACE1).
Chain of Beta-secretase 1 (P56817 whole entry): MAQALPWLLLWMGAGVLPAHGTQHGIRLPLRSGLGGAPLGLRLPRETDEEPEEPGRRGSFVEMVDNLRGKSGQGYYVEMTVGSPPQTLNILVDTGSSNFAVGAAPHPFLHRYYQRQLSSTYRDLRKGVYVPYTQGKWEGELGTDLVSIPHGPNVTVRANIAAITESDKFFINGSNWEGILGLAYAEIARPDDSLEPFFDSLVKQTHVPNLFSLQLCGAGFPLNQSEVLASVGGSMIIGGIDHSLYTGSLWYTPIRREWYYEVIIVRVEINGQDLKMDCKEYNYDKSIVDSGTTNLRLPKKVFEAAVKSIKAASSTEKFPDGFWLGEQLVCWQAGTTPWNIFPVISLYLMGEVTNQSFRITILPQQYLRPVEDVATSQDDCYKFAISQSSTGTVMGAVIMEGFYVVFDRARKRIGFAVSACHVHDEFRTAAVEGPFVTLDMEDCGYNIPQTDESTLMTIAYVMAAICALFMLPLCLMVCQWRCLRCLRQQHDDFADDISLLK
In the case of Cc1ccc(Nc2cc(-c3ccccc3)ncn2)cc1N(C)S(C)(=O)=O, the IC50 is reported as greater than 1600 µM.
Cc1ccc(Nc2cc(-c3ccc(CCCO)cc3)ncn2)cc1NS(C)(=O)=O showed an IC50 of 37 µM.
Cc1ccc(Nc2cc(-c3ccc(-c4ccccc4)cc3)ncn2)cc1NS(C)(=O)=O was tested, and the IC50 was 19 µM.
With COc1ccc(Nc2cc(-c3ccccc3)ncn2)cc1NS(C)(=O)=O the IC50 was 69 µM.
CS(=O)(=O)Nc1cc(Nc2cc(-c3ccccc3)ncn2)ccc1-c1ccccc1 showed an IC50 greater than 600 µM.
Cc1ccc(Nc2cc(-c3ccccc3)ncn2)cc1NS(C)(=O)=O showed an IC50 of 24 µM.
Cc1ccc(Nc2cc(-c3ccccc3N(C)C)ncn2)cc1NS(C)(=O)=O gave an IC50 of 317 µM.
For CS(=O)(=O)Nc1cc(Nc2cc(-c3ccccc3)ncn2)ccc1Br, the IC50 was 30 µM.
For C=CCc1ccc(Nc2cc(-c3ccccc3)ncn2)cc1NS(C)(=O)=O, the IC50 was 570 µM.
In the case of CS(=O)(=O)Nc1cc(Nc2cc(-c3ccccc3)ncn2)ccc1Cl, the IC50 is reported as 16 µM.
With Cc1ccc(Nc2cc(-c3ccccc3C)ncn2)cc1NS(C)(=O)=O the IC50 was 219 µM.
For Cc1ccc(Nc2cc(-c3ccc4c(c3)OCCO4)ncn2)cc1NS(C)(=O)=O, the IC50 was 21 µM.
With O=[N+]([O-])c1cc(Nc2cc(-c3ccccc3)ncn2)ccc1Br the IC50 was greater than 600 µM.
CC(=O)Nc1cc(Nc2cc(-c3ccccc3)ncn2)ccc1C showed an IC50 greater than 600 µM.
With CS(=O)(=O)Nc1cccc(Nc2cc(-c3ccccc3)ncn2)c1 the IC50 was 400 µM.
For Nc1cc(Nc2cc(-c3ccccc3)ncn2)ccc1Br, the IC50 was greater than 600 µM.
With Cc1ccc(Nc2cc(-c3ccc(N(C)C)cc3)ncn2)cc1NS(C)(=O)=O the IC50 was 15 µM.
Molecule CS(=O)(=O)Nc1cc(Nc2cc(-c3ccccc3)ncn2)ccc1F has an IC50 of 110 µM.
